Results on three compounds are retold here after publication PMC4494942, “Sorafenib and DE605, a novel c-Met inhibitor, synergistically suppress hepatocellular carcinoma” (Oncotarget, 2015).

For experiment [1], the system named is PLC/PRF/5 cells. In words: MTT cell viability assay, PLC/PRF/5. The class given is cell-based, human. The conditions noted are these: PLC/PRF/5, 72 h. (In general: Tetrazolium dyes change colour on reduction, which living cells bring about.)
Experimental: (§1) Cells were seeded in 96-well plates (3,000 cells/well) and incubated overnight for attachment, and were then treated with indicated agents in 10% FBS-supplemented medium for 72 hours. The medium was replaced with MTT (0.5 mg/ml) at 37°C for 2 hours. After removal of medium, the cells were lysed with 200 μl per well dimethyl sulfoxide (DMSO), and absorbance at 570 nm was measured and the values of 50% inhibition concentration (IC50) for each drug were determined. Cell viability was evaluated by measuring the optical density at 570 nm using an Automated Microplate Reader (Bio-Tek, USA). The percentage of viable cells was calculated using the following formula: cell viability (%) = (OD of treated cells/OD of control cells) × 100. All assays were performed in triplicate with at least 3 independent experiments.
Experiment [2] has as its system MHCC97H human HCC xenograft model and HuPrime model with human HCC explants. The conditions noted are these: cited from earlier work.
In a further experiment the test system is HepG2 cells. In words: MTT cell viability assay, HepG2. The class given is cell-based. The conditions noted are these: Homo sapiens, HepG2, 72 h.
A further experiment concerns Hep3B cells. In words: MTT cell viability assay, Hep3B. The conditions noted are these: Homo sapiens, 72 h, read-out: cell viability IC50.
Experiment [3] relates to PLC/PRF/5 tumor xenografts. In words: PLC/PRF/5 tumor xenograft model. The conditions noted are these: oral, qd, 28 days; sorafenib 60 mg/kg, DE605 80 mg/kg; versus control group.
Experimental: (B) body weights were measured twice per week, and are expressed as mean ± SD. (C-D) IHC analysis of intratumoral proliferation in PLC/PRF/5 xenograft tumors. Tumors were harvested and paraffin-embedded tumor tissues were subjected to immunostaining for Ki-67 (C) and TUNEL (D). Images were captured by Zeiss Axioskop-2 microscope under 200× magnification. Scale bar, 100 μm.
All surgery was performed under sodium pentobarbital anesthesia, and all efforts were made to minimize suffering. Female athymic nude mice of 4–5 weeks of age were purchased from Shanghai SLAC Laboratory Animal Co., Ltd. (Shanghai, China) and were housed in the Animal Resource Facility. […] Tumors were monitored twice weekly. As previously described [54], tumor size was measured on two axes with the aid of Vernier calipers and tumor volume (mm^3) was calculated using the formula: 1/2(L × W^2) where L is the longest and W is the shortest axis. […] For tumor growth inhibition (TGI), the antitumor effects are calculated by dividing the tumor volumes from treatment groups by those of the control groups and multiplied by 100. […]
The type of cell death (necrosis/apoptosis) was evaluated by the terminal deoxynucleotidyl transferase-mediated deoxyuridine biotin nick-end labeling (TUNEL) assay with an Apo-Direct kit (Pharmingen, San Diego, CA) as previously reported [55]. […]
The next experiment concerns HuH7 cells. In words: MTT cell viability assay, HuH7. The class given is cell-based. Conditions: Homo sapiens, Huh-7, HuH7, 72 h.
In experiment [4] the test system is PLC/PRF/5 cells. In words: cell-cycle distribution by flow cytometry. Conditions: PLC/PRF/5, 72 h, single agent. Type of experiment: cell-based, human. As for the experimental part:
As sorafenib and c-Met inhibitors reportedly induce apoptosis in cancer cells, we examined the impact of our drug combination on programmed cell death. First, the effect of co-administration of DE605 and sorafenib on cell-cycle distribution was analyzed by flow cytometric analysis.
Figure 3 Effects of sorafenib in combination with DE605 on cell-cycle progression in PLC/PRF/5 cells (A) PLC/PRF/5 cells were treated with the indicated drugs for 72 hours, and cell-cycle distribution was analyzed by flow cytometry. (B) Statistical analysis of sub-G1 phase in PLC/PRF/5 cells exposed to DMSO, sorafenib alone, DE605 alone, or in sorafenib/DE605 combination. Data, mean ± SD (n = 3).
After drug treatment, the cells were harvested by trypsinization, washed with PBS, then pellets were resuspended and fixed in ethanol (70%, v/v) at −20°C overnight, and washed once with PBS. After centrifugation, the cells were incubated for 15 minutes at room temperature in 0.1 ml of phosphate-citric acid buffer. Cells were stained with propidium iodide staining buffer containing Triton X-100 (0.1%, v/v), RNase A (100 μg/ml), and propidium iodide (80 μg/ml) for 30 minutes in the dark. Cell-cycle distribution was analyzed by flow cytometry with CellQuest software (Becton Dickinson).
For orientation: Flow cytometry measures light scatter and fluorescence of single cells or particles in a stream.

Each structure is given as a SMILES string.

Experimental for Hep3B cells: as §1
Experimental for HepG2 cells: as §1
Experimental for HuH7 cells: as §1

Take `O=C1NC(=O)[C@@H](c2cn3c4c(cccc24)CCC3)[C@@H]1c1c[nH]c2ccccc12` [tivantinib]: the “interaction with sorafenib on cell viability (combination index)” value in the experiment on PLC/PRF/5 cells [1] (tivantinib 0.25 and 0.5 μM in combination with sorafenib) was “synergistic effect”.

On to `CN1CCC(COc2cnc(-c3cccc(Cn4nc(-c5cccc(C#N)c5)ccc4=O)c3)nc2)CC1` [MSC2156119J], for which, in experiment [2], the “efficacy of combination with sorafenib” value is given as “did not improve efficacy”.

With `CNC(=O)c1cc(Oc2ccc(NC(=O)Nc3ccc(Cl)c(C(F)(F)F)c3)cc2)ccn1` [sorafenib], the IC50 (usually the concentration needed to halve the response being measured) in the experiment on HepG2 cells came out at 3.3 µM; in the experiment on Hep3B cells, 10.5 µM; in the experiment on PLC/PRF/5 cells [1] (Homo sapiens, MTT) it was 6.7 µM; in the experiment on HuH7 cells, 2.4 µM. In addition, the “tumor growth inhibition (TGI)” value in experiment [3] is on record as 17.3%. Also, the cell-cycle arrest entry in the experiment on PLC/PRF/5 cells [4] is given as “no appreciable cell-cycle arrest”.
